Laboratory results: patent US20110263588A1, “TRICYCLIC COMPOUNDS AS GLUTAMATE RECEPTOR MODULATORS” (GLAXO GROUP LIMITED, priority 2008, published 2011)
Read-outs that look alike come from different tables or passages of the source.

Target: T1, human mGlu5 recombinant receptor (Homo sapiens, UniProt P41594)
T1 construct: expressed in transfected cells; host or cells: inducible CHO cell line stably expressing Aequorin (Euroscreen FAST); doxycycline-responsive promoter
Assay: mGluR5 calcium mobilization in inducible mGluR5 CHO cells (aequorin luminescence, antagonist mode)
Assay type: cell-based
Details: antagonist activity against EC80 glutamate, inducible CHO cell line expressing human mGlu5 and Aequorin, read-out: IC50 (uM) Ca^++ flux
Text: mGluR5 Calcium Mobilization in Inducible mGluR5 CHO Cells
To functionally measure mGluR5 calcium mobilization in response to agonists or antagonists, an inducible CHO cell line expressing the human mGlu5 recombinant receptor was used. This cell line also stably expressed Aequorin (Euroscreen FAST), a photoprotein that spontaneously couples with coelenterazine h when added exogenously in the cell media. The Aequorin-coelenterzine h complex undergoes a conformational change upon binding of calcium ions which results in the emission of blue light (wavelength 469 nm) that was measured using a Hamamatsu Functional Drug Screening System 6000.
mGluR5 expression was induced by a doxycycline responsive promoter by growing cells to mid-log phase for 18 hours in media without antibiotics and supplemented with doxycycline (600 ng/mL). Cells were detached from the plate by gentle flushing using PBS-EDTA (5 mM EDTA) and centrifuged for collection and resuspended in “assay buffer” (HBSS, 2.1 mM CaCl2, 2 ug/mL glutamate-pyruvate transaminase, 4 mM MEM sodium pyruvate, and 0.1% protease free BSA). Cells were incubated with coelenterazine h (Molecular Probes) at room temperature for 4 hours before testing.
To measure mGluR5 antagonist activity, cell suspensions containing test compound were mixed with EC80 glutamate and emission of light was recorded. Reference and test compounds were tested at several concentrations in duplicate to obtain dose response curves using the Prism GraphPad software (GraphPad Software Inc.). IC50 values were calculated from the dose response curves using the equation:
Y=Bottom+(Top−Bottom)/(1+10̂((LogEC50−X)*HillSlope)).

T1 sequence (P41594 21-1212): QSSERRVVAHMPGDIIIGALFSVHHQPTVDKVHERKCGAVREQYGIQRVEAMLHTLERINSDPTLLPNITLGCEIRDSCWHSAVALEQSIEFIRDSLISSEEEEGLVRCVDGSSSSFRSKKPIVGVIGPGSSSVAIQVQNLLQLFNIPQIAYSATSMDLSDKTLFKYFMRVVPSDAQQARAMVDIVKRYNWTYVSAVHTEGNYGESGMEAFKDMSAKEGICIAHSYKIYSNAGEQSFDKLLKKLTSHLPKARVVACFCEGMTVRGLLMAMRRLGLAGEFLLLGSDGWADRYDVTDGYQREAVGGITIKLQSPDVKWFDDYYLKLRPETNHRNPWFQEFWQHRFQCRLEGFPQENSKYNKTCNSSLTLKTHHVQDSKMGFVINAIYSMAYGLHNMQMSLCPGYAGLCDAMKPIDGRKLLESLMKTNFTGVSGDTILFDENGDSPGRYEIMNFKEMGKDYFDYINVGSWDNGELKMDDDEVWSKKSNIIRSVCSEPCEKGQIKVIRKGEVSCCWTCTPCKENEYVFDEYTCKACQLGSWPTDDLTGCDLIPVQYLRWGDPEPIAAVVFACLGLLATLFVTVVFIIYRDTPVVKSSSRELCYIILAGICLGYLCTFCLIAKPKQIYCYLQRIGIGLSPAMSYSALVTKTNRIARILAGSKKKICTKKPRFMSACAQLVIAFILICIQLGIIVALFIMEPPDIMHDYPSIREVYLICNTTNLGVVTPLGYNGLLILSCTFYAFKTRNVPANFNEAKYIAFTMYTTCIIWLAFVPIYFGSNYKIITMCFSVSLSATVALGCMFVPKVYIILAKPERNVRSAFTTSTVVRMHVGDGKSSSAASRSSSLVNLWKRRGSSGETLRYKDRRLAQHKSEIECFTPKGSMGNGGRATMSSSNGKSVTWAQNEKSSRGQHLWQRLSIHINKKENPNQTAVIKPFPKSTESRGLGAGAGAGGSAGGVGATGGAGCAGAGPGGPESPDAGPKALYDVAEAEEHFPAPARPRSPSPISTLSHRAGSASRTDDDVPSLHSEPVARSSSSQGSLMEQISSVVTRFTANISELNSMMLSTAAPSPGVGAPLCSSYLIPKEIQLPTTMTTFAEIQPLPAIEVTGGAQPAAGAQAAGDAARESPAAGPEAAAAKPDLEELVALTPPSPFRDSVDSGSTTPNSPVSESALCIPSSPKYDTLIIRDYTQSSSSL

Row | IC50 (Table 2) | IC50 (Table 3) | SMILES
1 | 1 to 10 µM |  | Cn1nc(CNc2cccc(Cl)c2)c2c1-c1ccccc1OC2 [Example 12]
2 |  | 1 to 10 µM | COc1ccc(Cl)cc1NC(=O)c1nn(C)c2c1COc1ccccc1-2 [N-(5-chloro-2-methoxyphenyl)-1-methyl-1,4-dihydrochromeno[4,3-c]pyrazole-3-carboxamide]
3 |  | > 10 µM | CN(C(=O)c1noc2c1COc1ccccc1-2)c1cccc(Cl)c1 [N-(3-chlorophenyl)-N-methyl-4H-chromeno[3,4-d]isoxazole-3-carboxamide]
4 | > 10 µM |  | Cn1nc(C(=O)Nc2cccc(Cl)c2)c2c1-c1ccccc1OC2(C)C [Example 4, N-(3-Chlorophenyl)-1,4,4-trimethyl-1,4-dihydrochromeno[4,3-c]pyrazole-3-carboxamide]
5 | < 1 µM |  | Cc1cccc(NC(=O)c2nn(C)c3c2CCc2cccnc2-3)n1 [Example 13, 1-Methyl-N-(6-methylpyridin-2-yl)-4,5-dihydro-1H-pyrazolo[4,3-h]quinoline-3-carboxamide]
6 | < 1 µM |  | Cc1cccc(NC(=O)c2nn(C)c3c2CCc2ccncc2-3)n1 [Example 17, 1-Methyl-N-(6-methylpyridin-2-yl)-4,5-dihydro-1H-pyrazolo[4,3-h]isoquinoline-3-carboxamide]
7 | < 1 µM |  | Cn1nc(C(=O)Nc2cccc(Cl)c2)c2c1-c1cc(F)ccc1OC2 [Example 1, N-(3-Chlorophenyl)-8-fluoro-1-methyl-1,4-dihydrochromeno[4,3-c]pyrazole-3-carboxamide]
8 | > 10 µM |  | Cn1nc(C(=O)N2CCOc3ccccc32)c2c1-c1ccccc1OC2 [Example 10, (2H-Benzo[b][1,4]oxazin-4(3H)-yl)(1-methyl-1,4-dihydrochromeno[4,3-c]pyrazol-3-yl)methanone]
9 | < 1 µM |  | Cc1cccc(NC(=O)c2nn(C)c3c2CCCc2cccnc2-3)n1 [Example 22, 3-Methyl-N-(6-methylpyridin-2-yl)-3,4,14-triazatricyclo[8.4.0.0̂{2,6}]tetradeca-1(14),2(6),4,10,12-pentaene-5-carboxamide]
10 |  | > 10 µM | Cn1nc(C(=O)NCc2cccc(Cl)c2)c2c1-c1ccccc1OC2 [N-(3-chlorobenzyl)-1-methyl-1,4-dihydrochromeno[4,3-c]pyrazole-3-carboxamide]
11 | > 10 µM |  | CCN(Cc1nn(C)c2c1COc1ccccc1-2)C(=O)c1ccc(Br)o1 [Example 11, 5-Bromo-N-ethyl-N-((1-methyl-1,4-dihydrochromeno[4,3-c]pyrazol-3-yl)methyl)furan-2-carboxamide]
12 |  | < 1 µM | O=C(Nc1cccc(Cl)c1)c1noc2c1CSc1ccccc1-2 [N-(3-chlorophenyl)-4H-thiochromeno[3,4-d]isoxazole-3-carboxamide]
13 | < 1 µM |  | CCn1nc(C(=O)Nc2cccc(C)n2)c2c1-c1ncccc1CC2 [Example 16, 1-Ethyl-N-(6-methylpyridin-2-yl)-4,5-dihydro-1H-pyrazolo[4,3-h]quinoline-3-carboxamide]
14 |  | > 10 µM | COc1cccc(NC(=O)c2n[nH]c3c2COc2ccccc2-3)c1 [N-(3-methoxyphenyl)-1,4-dihydrochromeno[4,3-c]pyrazole-3-carboxamide]
15 | < 1 µM |  | Cc1cccc(NC(=O)c2nn(C)c3c2CCc2ccc(C)nc2-3)n1 [Example 18]
16 | > 10 µM |  | Cn1nc2c(c1C1CCCN(C(=O)c3ccc(F)cc3)C1)CCc1ccccc1-2 (stereo not shown) [Example 24, (4-Fluorophenyl)(3-(2-methyl-4,5-dihydro-2H-benzo[g]indazol-3-yl)piperidin-1-yl)methanone]
17 |  | > 10 µM | COc1ccc(NC(=O)c2n[nH]c3c2COc2ccccc2-3)cc1 [N-(4-methoxyphenyl)-1,4-dihydrochromeno[4,3-c]pyrazole-3-carboxamide]

Row | IC50 (Table 2) | IC50 (Table 3) | SMILES
18 |  | > 10 µM | O=C(Nc1ccc(Cl)cc1)c1n[nH]c2c1CCc1ccccc1-2 [N-(4-chlorophenyl)-4,5-dihydro-1H-benzo[g]indazole-3-carboxamide]
19 | < 1 µM |  | Cn1nc(C(=O)Nc2cccc(Cl)c2)c2c1-c1ccccc1NC2 [Example 21, N-(3-Chlorophenyl)-1-methyl-4,5-dihydro-1H-pyrazolo[4,3-c]quinoline-3-carboxamide]
20 |  | 1 to 10 µM | Cn1nc(C(=O)Nc2ccccc2Cl)c2c1-c1ccccc1OC2 [N-(2-chlorophenyl)-1-methyl-1,4-dihydrochromeno[4,3-c]pyrazole-3-carboxamide]
21 |  | > 10 µM | CN(C(=O)c1nn(C)c2c1COc1ccccc1-2)c1cccc(Cl)c1 [N-(3-chlorophenyl)-N,1-dimethyl-1,4-dihydrochromeno[4,3-c]pyrazole-3-carboxamide]
22 |  | > 10 µM | Cn1nc(C(=O)Nc2ccc(F)cc2)c2c1-c1ccccc1OC2 [N-(4-fluorophenyl)-1-methyl-1,4-dihydrochromeno[4,3-c]pyrazole-3-carboxamide]
23 | > 10 µM |  | Cc1cccc(NC(=O)c2c3c(nn2C)-c2ncccc2CCC3)n1 [Example 23, 4-Methyl-N-(6-methylpyridin-2-yl)-3,4,14-triazatricyclo[8.4.0.0̂{2,6}]tetradeca-1(14),2,5,10,12-pentaene-5-carboxamide]
24 |  | > 10 µM | O=C(Nc1cccnc1)c1n[nH]c2c1COc1ccccc1-2 [N-(pyridin-3-yl)-1,4-dihydrochromeno[4,3-c]pyrazole-3-carboxamide]
25 | < 1 µM |  | CC(=O)N1Cc2c(C(=O)Nc3cccc(Cl)c3)nn(C)c2-c2ccccc21 [Example 19]
26 |  | > 10 µM | Cn1nc(C(=O)Nc2ccc(F)c(Cl)c2)c2c1-c1ccccc1OC2 [N-(3-chloro-4-fluorophenyl)-1-methyl-1,4-dihydrochromeno[4,3-c]pyrazole-3-carboxamide]
27 | 1 to 10 µM |  | Cn1nc(C(=O)Nc2cc(Cl)ccn2)c2c1-c1ccccc1OC2 [Example 3, N-(4-Chloropyridin-2-yl)-1-methyl-1,4-dihydrochromeno[4,3-c]pyrazole-3-carboxamide]
28 | > 10 µM |  | Cc1cccc(NC(=O)c2n[nH]c3c2COc2ccccc2-3)n1 [Example 7, N-(6-Methylpyridin-2-yl)-1,4-dihydrochromeno[4,3-c]pyrazole-3-carboxamide]
29 | < 1 µM |  | Cn1nc2c(c1C(=O)Nc1cccc(Cl)c1)COc1ccc(F)cc1-2 [Example 2, N-(3-Chlorophenyl)-8-fluoro-2-methyl-2,4-dihydrochromeno[4,3-c]pyrazole-3-carboxamide]
30 | > 10 µM |  | Cn1nc(C(=O)Nc2ccc3c(c2)OCCO3)c2c1-c1ccccc1OC2 [Example 9, N-(2,3-Dihydrobenzo[b][1,4]dioxin-6-yl)-1-methyl-1,4-dihydrochromeno[4,3-c]pyrazole-3-carboxamide]
31 | > 10 µM |  | Cc1cccc(NC(=O)c2nn(C(C)C)c3c2CCc2cccnc2-3)n1 [Example 15]
32 |  | < 1 µM | Cc1ccc2c(c1)-c1c(c(C(=O)Nc3cccc(Cl)c3)nn1C)CS2 [N-(3-chlorophenyl)-1,8-dimethyl-1,4-dihydrothiochromeno[4,3-c]pyrazole-3-carboxamide]
33 | > 10 µM |  | Cn1nc(C2CCCN(C(=O)c3ccc(F)cc3)C2)c2c1-c1ccccc1CC2 (stereo not shown) [Example 25, (4-Fluorophenyl)(3-(1-methyl-4,5-dihydro-1H-benzo[g]indazol-3-yl)piperidin-1-yl)methanone]
34 | < 1 µM |  | Cn1nc(C(=O)Nc2cccc(Cl)c2)c2cnc3ccccc3c21 [Example 20, N-(3-Chlorophenyl)-1-methyl-1H-pyrazolo[4,3-c]quinoline-3-carboxamide]
